Target: T1, human TREK-1 (Homo sapiens, UniProt O95069)
T1 construct: expressed in transfected cells
T1 sequence (O95069 1-426): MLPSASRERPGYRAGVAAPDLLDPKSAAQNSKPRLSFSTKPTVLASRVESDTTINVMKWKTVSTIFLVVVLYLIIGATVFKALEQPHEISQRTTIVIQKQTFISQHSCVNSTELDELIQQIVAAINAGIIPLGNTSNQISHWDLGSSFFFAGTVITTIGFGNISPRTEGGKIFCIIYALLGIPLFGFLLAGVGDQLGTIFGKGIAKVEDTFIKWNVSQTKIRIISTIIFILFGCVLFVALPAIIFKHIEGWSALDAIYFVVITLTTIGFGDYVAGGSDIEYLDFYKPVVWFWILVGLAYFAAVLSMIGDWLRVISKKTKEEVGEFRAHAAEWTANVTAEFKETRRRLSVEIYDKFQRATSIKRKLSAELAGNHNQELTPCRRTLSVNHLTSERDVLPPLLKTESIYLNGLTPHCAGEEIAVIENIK
Assay: TREK-1 Thallium (Tl+) flux assay, Method 1
Assay type: cell-based
Conditions: TREK-1 Thallium (Tl+) flux assay, Method 1
In short: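 Readout: Thallos fluorescence ratio, taken 25 s post-thallium relative to the pre-thallium baseline average, then converted to % inhibition. Cells were CHO-K1 stably expressing human TREK-1, dye-loaded and exposed to test compound (vehicle 0.3% DMSO) for 10 min prior to thallium stimulation.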

IC50 [nM]	SMILES
1760	CC(=O)N[C@H]1CC[C@@H](n2ncc(Cl)c2C(=O)Nc2ccc(OCc3ccccc3)cc2C)CC1 [Compound 399, 1-(cis-4-acetamidocyclohexyl)-N-(4-(benzyloxy)-2-methylphenyl)-4-chloro-1H-pyrazole-5-carboxamide]
2570	COc1ccc(-c2cnc(NC(=O)c3c(Cl)cnn3C3CCN(C(=O)OC(C)(C)C)CC3)c(C)c2)cn1 [Compound 407, tert-butyl 4-(4-chloro-5-((6′-methoxy-5-methyl-[3,3′-bipyridin]-6-yl)carbamoyl)-1H-pyrazol-1-yl)piperidine-1-carboxylate]

Same assay, conditions: TREK-1 Thallium (Tl+) flux assay; no *^12 (Method 2) mark on these rows

SMILES	IC50 [nM]
Cc1cc(-c2cnn(-c3ccc(F)cc3)c2)cnc1NC(=O)c1c(Cl)cnn1C[C@H]1CCOC1 [Compound 387, (R)-4-chloro-N-(5-(1-(4-fluorophenyl)-1H-pyrazol-4-yl)-3-methylpyridin-2-yl)-1-((tetrahydrofuran-3-yl)methyl)-1H-pyrazole-5-carboxamide]	900
Cc1cc(C#Cc2ccc(F)cc2)cnc1NC(=O)c1c(Cl)cnn1CC1(F)CCN(C(=O)C(C)C)CC1 [Compound 339, 4-chloro-1-((4-fluoro-1-isobutyrylpiperidin-4-yl)methyl)-N-(5-((4-fluorophenyl)ethynyl)-3-methylpyridin-2-yl)-1H-pyrazole-5-carboxamide]	730
Cc1cc(C#Cc2ccccc2)cnc1NC(=O)c1c(Cl)cnn1CC1CN(C(=O)C2CC2)C1 [Compound 274, 4-chloro-1-((1-(cyclopropanecarbonyl)azetidin-3-yl)methyl)-N-(3-methyl-5-(phenylethynyl)pyridin-2-yl)-1H-pyrazole-5-carboxamide]	470
CC(C)(C)OC(=O)N[C@H]1CC[C@@H](n2ncc(Cl)c2C(=O)Nc2ncc(C#Cc3ccccc3)cc2F)CC1 [Compound 294, tert-butyl (cis-4-(4-chloro-5-((3-fluoro-5-(phenylethynyl)pyridin-2-yl)carbamoyl)-1H-pyrazol-1-yl)cyclohexyl)carbamate]	530
Cc1cc(C#Cc2ccccc2)cnc1NC(=O)c1c(Cl)cnn1[C@@H]1CC[C@@H](NC(=O)OC(C)(C)C)C1 [Compound 291, tert-butyl ((1R,3R)-3-(4-chloro-5-((3-methyl-5-(phenylethynyl)pyridin-2-yl)carbamoyl)-1H-pyrazol-1-yl)cyclopentyl)carbamate]	520
Cc1cc(C#Cc2ccccc2)cnc1NC(=O)c1c(Cl)cnn1C1CCOCC1 [Compound 210, 4-chloro-N-(3-methyl-5-(phenylethynyl)pyridin-2-yl)-1-(tetrahydro-2H-pyran-4-yl)-1H-pyrazole-5-carboxamide]	320
CC(C)(C)OC(=O)N1CCC(n2ncc(Cl)c2C(=O)Nc2ncc(C#Cc3ccccc3)cc2F)CC1 [Compound 255, tert-butyl 4-(4-chloro-5-((3-fluoro-5-(phenylethynyl)pyridin-2-yl)carbamoyl)-1H-pyrazol-1-yl)piperidine-1-carboxylate]	420

Further lines, results first:

IC50 [nM]	SMILES
330	CC(=O)N1CCC(n2ncc(Cl)c2C(=O)Nc2ncc(C#Cc3ccc(F)cc3)cc2F)[C@H](F)C1 (stereo in doubt) [Compound 213, 1-((3R,4R)-1-acetyl-3-fluoropiperidin-4-yl)-4-chloro-N-(3-fluoro-5-((4-fluorophenyl)ethynyl)pyridin-2-yl)-1H-pyrazole-5-carboxamide]
610	Cc1ccc(C#Cc2cnc(NC(=O)c3c(Cl)cnn3[C@H]3CCOC3)c(C)c2)cc1 [Compound 316, (S)-4-chloro-N-(3-methyl-5-(p-tolylethynyl)pyridin-2-yl)-1-(tetrahydrofuran-3-yl)-1H-pyrazole-5-carboxamide]
340	Cc1cc(C#Cc2ccccc2)cc(F)c1NC(=O)c1c(Cl)cnn1C[C@H]1CCOC1 [Compound 219, (R)-4-chloro-N-(2-fluoro-6-methyl-4-(phenylethynyl)phenyl)-1-((tetrahydrofuran-3-yl)methyl)-1H-pyrazole-5-carboxamide]
630	Cc1cc(C#Cc2ccccc2)cnc1NC(=O)c1c(Cl)cnn1CCC1CCCO1 (centres unmarked) [Compound 321, 4-chloro-N-(3-methyl-5-(phenylethynyl)pyridin-2-yl)-1-(2-(tetrahydrofuran-2-yl)ethyl)-1H-pyrazole-5-carboxamide]
340	CO[C@@H](C)Cn1ncc(Cl)c1C(=O)Nc1ncc(C#Cc2ccccc2)cc1C [Compound 218, (S)-4-chloro-1-(2-methoxypropyl)-N-(3-methyl-5-(phenylethynyl)pyridin-2-yl)-1H-pyrazole-5-carboxamide]

Same assay, conditions: TREK-1 Thallium (Tl+) flux assay; values without footnote *12 are Method 1

SMILES	IC50 [nM]
CC(=O)NC1CCCC(n2ncc(Cl)c2C(=O)Nc2ncc(C#Cc3ccccc3)cc2C)C1 (centres unmarked) [Compound 107, 1-(3-acetamidocyclohexyl)-4-chloro-N-(3-methyl-5-(phenylethynyl)pyridin-2-yl)-1H-pyrazole-5-carboxamide hydrofluoride]	190
Cc1cc(C#Cc2ccccc2)cnc1NC(=O)c1c(Cl)cnn1C[C@@H]1CCN(C(=O)C(C)C)C[C@@H]1F [Compound 118, 4-chloro-1-(((3R,4S)-3-fluoro-1-isobutyrylpiperidin-4-yl)methyl)-N-(3-methyl-5-(phenylethynyl)pyridin-2-yl)-1H-pyrazole-5-carboxamide]	200
CC(=O)N[C@H]1C[C@@H](n2ncc(Cl)c2C(=O)Nc2ncc(C#Cc3ccccc3)cc2C)C1 [Compound 64, 1-(cis-3-acetamidocyclobutyl)-4-chloro-N-(3-methyl-5-(phenylethynyl)pyridin-2-yl)-1H-pyrazole-5-carboxamide]	150
O=C(Nc1ncc(C#Cc2ccccc2)cc1F)c1c(Cl)cnn1C[C@H]1CCOC1 [Compound 60, (R)-4-chloro-N-(3-fluoro-5-(phenylethynyl)pyridin-2-yl)-1-((tetrahydrofuran-3-yl)methyl)-1H-pyrazole-5-carboxamide]	150

Further lines, results first:

IC50 [nM]	SMILES
240	CC(=O)N1CC[C@H](n2ncc(Cl)c2C(=O)Nc2ncc(C#Cc3ccccc3)cc2F)[C@@H](F)C1 [Compound 154, 1-((3S,4S)-1-acetyl-3-fluoropiperidin-4-yl)-4-chloro-N-(3-fluoro-5-(phenylethynyl)pyridin-2-yl)-1H-pyrazole-5-carboxamide]
160	CC(=O)N1CC[C@H](Cn2ncc(Cl)c2C(=O)Nc2ncc(C#Cc3ccccc3)cc2C)[C@H](F)C1 [Compound 82, 1-(((3S,4R)-1-acetyl-3-fluoropiperidin-4-yl)methyl)-4-chloro-N-(3-methyl-5-(phenylethynyl)pyridin-2-yl)-1H-pyrazole-5-carboxamide]
260	CC(=O)N1CCC(n2ncc(Cl)c2C(=O)Nc2ncc(C#Cc3ccccc3F)cc2C)CC1 [Compound 164, 1-(1-acetylpiperidin-4-yl)-4-chloro-N-(5-((2-fluorophenyl)ethynyl)-3-methylpyridin-2-yl)-1H-pyrazole-5-carboxamide]
180	CC(=O)N[C@H]1C[C@@H](n2ncc(Cl)c2C(=O)Nc2ncc(C#Cc3ccccc3)cc2F)C1 [Compound 94, 1-(cis-3-acetamidocyclobutyl)-4-chloro-N-(3-fluoro-5-(phenylethynyl)pyridin-2-yl)-1H-pyrazole-5-carboxamide]

Same assay, conditions: read-out: Tl^+ Assay % inhibition at 30 uM (Minus value indicates activation of TREK-1); at 30 uM; CHO-K1 cells stably expressing human TREK-1; minus = activation

inhibition at 30 µM [%]	SMILES
-115	CC(=O)N1CCC(CCn2cc(Cl)c(C(=O)Nc3ncc(C#Cc4ccccc4F)cc3C)n2)CC1 [Compound 445, 1-(2-(1-acetylpiperidin-4-yl)ethyl)-4-chloro-N-(5-((2-fluorophenyl)ethynyl)-3-methylpyridin-2-yl)-1H-pyrazole-3-carboxamide]
